Entries after “also recorded” stand apart in the source; their conditions may differ.

In data set [1] the test system is AR-null PCa cells (DU145, PC3). The data set can be described thus: MTT / CellTiter GLO cell viability, AR-null prostate cancer cells. Particulars: result in words.
Experimental: (§2) The results are means of quadruplicate expts±s.d. Top panel: CellTiter GLO luminescent bioassay (arbitrary units on vertical axis). Bottom panel: classical MTT assay ([blue/yellow]=[viable/non-viable]).
(§3) Experiments were performed in quadruplicate; results are means+/−s.d.
AR null PC3 cells were exposed to the indicated compounds for 6 days; cell viability was measured by MTT assay. Results were normalized to that of vehicle control. Experiments were performed in quadruplicate; results are means+/−s.d.
For each compound and concentration in the figure, the bars represent relative cell viability of 22Rv1, LAPC4, and DU145, from left to right.
For each compound and concentration in the figure, the bars represent relative cell viability of CWR22 and PC3, from left to right.
In data set [2] the test system is AR positive PCa cells (LNCaP, LNCaP-AR, CWR22, 22Rv1, LAPC4). The experiment in a line: MTT / CellTiter GLO cell viability, AR positive prostate cancer cells. Particulars: result in words. (In general: Cellular ATP, detected with luciferase, serves as a proxy for viable cell number.)
Experimental: as §2, §3
Results were normalized to that of vehicle control. Experiments were performed in quadruplicate; results are means+/−s.d.
Next, the effects of the compounds on growth of prostate cancer cell lines in vitro were evaluated.
Data set [3] deals with non-AR-dependent reporter systems. The experiment in a line: Non-AR-dependent reporter systems. The data set is classed as cell-based. Particulars: result in words. The source says:
(§1) Additional compounds have been generated with sequential numbering through JN136. In vitro biologic activity and biochemical activity/selectivity for AR inhibition have been tested for JN104-133.

Data set [4] has as its system androgen response element (ARE). The data set can be described thus: ARE reporter assay (tandem copies of the androgen response element). Format: cell-based. Particulars: result in words. Here is the method: FIG. 11A. Effects of JN series compounds in reporter assays for androgen response element. Experiments were performed in triplicate and results are means+/−s.d.

Data set [5] has as its system AR transcriptional activity (PSA promoter/enhancer reporter). The experiment in a line: PSA promoter/enhancer reporter assay. The data set is classed as cell-based. Particulars: result in words.
From the text: as §1
On the technique in general: In a reporter assay the amount or activity of a reporter protein is the signal.

Data set [6] has as its system AR transcriptional activity (MMTV reporter). The experiment in a line: MMTV reporter assay. Format: cell-based. Particulars: result in words.
The test system of data set [7] is LNCaP-AR castration resistant cell line. The data set can be described thus: LNCaP-AR castration resistant xenograft in castrated nude mice. The data set is classed as in vivo. Here is the method: FIG. 12A. In vivo effects of JN series compounds.
FIG. 12B. In vivo effects of JN series compounds.
Selected compounds were tested in a mouse xenograft model. In this model, the LNCaP-AR castration resistant cell line was grown subcutaneously in the flanks of castrated nude mice. When tumors reached 150-200 mm^3, mice were administered selected JN series compounds, vehicle or positive control by oral gavage once per day for five days per week (Mon-Fri). […].

Regarding `C=C(C)C(=O)NC(=O)/C(=C/c1ccc(Cl)cc1)c1ccc(F)cc1F` [JN118], the “off target effects on AR-null prostate cancer cell lines compared to JN018” value in data set [1] was “reduced off target effects”. For the same compound, in data set [2], the “growth inhibitory / suppressive effects as compared to JN018” value is “improved in vitro growth inhibitory effects”. In addition, in data set [3], the “effects on non-AR-dependent reporter systems” value is “minimal effects”. In data set [4], the “reporter activity driven by the ARE” value was “excellent inhibitory effects”. Also, the “AR transcriptional activity in PSA promoter/enhancer reporter” value in data set [5] was “excellent inhibitory effects”. Moreover, in data set [6], the “reporter activity driven by the MMTV promoter” value is reported as “excellent inhibitory effects”.

As for `C=C(C)C(=O)NC(=O)/C(=C/c1ccc(C(F)(F)F)cc1)c1ccccc1` [JN121], the “off target effects on AR-null prostate cancer cell lines compared to JN018” value in data set [1] is recorded as “reduced off target effects”. Besides, the “growth inhibitory / suppressive effects as compared to JN018” value in data set [2] is “improved in vitro growth inhibitory effects”. In data set [3], the “effects on non-AR-dependent reporter systems” value is “minimal effects”. In addition, in data set [4], the “reporter activity driven by the ARE” value is “excellent inhibitory effects”. Further, the “AR transcriptional activity in PSA promoter/enhancer reporter” value in data set [5] was “excellent inhibitory effects”. Moreover, the “tumor growth of LNCaP-AR model in castrated nude mice” value in data set [7] (oral gavage once per day, five days per week (Mon-Fri)) was “inhibit the growth; also recorded: demonstrated anti-tumor effects”. In addition, in data set [7] (xenograft study, oral gavage Mon-Fri), the “signs of toxicity in mice” value is “limited or no outward signs of toxicity”. Moreover, in data set [6], the “reporter activity driven by the MMTV promoter” value is reported as “excellent inhibitory effects”.

(Values after patent US11261152B2, “Inhibitors of the N-terminal domain of the androgen receptor” (The Regents of the University of California, priority 2017, dated 2022).)
